Measurements reported in patent US10774051B2, “6-membered heterocyclic derivatives and pharmaceutical composition comprising the same” (Shionogi & Co., Ltd., priority 2015, dated 2020).

target: human P2X7 receptor (Homo sapiens, UniProt Q99572, R270H/Y155H); experiment: Evaluation of human P2X7 receptor inhibitory activity (Yo-Pro uptake, BzATP stimulation, FLIPR TETRA); type: cell-based; settings: 1321N1 cells stably expressing human P2X7 receptor; BzATP stimulation, Yo-Pro uptake; read-out: IC50 (antagonistic activity for the human P2X7 receptor)
Outline: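 1321N1 cells stably expressing human P2X7 (T606C/G952A SNP variant), in HBSS buffer pH 7.4-7.5 with Yo-Pro, stimulated with BzATP; compound added 8 min after agonist. Fluorescence followed for 20 min on FLIPR; max-minus-min change gave % inhibition, IC50 by logistic fit.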

Point of comparison: `COc1cn(Cc2ccc(F)cc2)c(Nc2cc3sc(C)nc3cc2C)nc1=O` [Compound I-0561], IC50 19 nM. Against it:
- COc1cn(Cc2ccc(F)c(C)c2)c(Nc2cccc(Cl)c2C)nc1=O [Compound I-0520] — 2.1-fold lower, 9 nM
- COc1cn(Cc2cc(F)cc(F)c2)c(Nc2cccc(SC)c2C)nc1=O [Compound I-0550] — 9.5-fold lower, 2 nM

same assay, conditions: 1321N1 cells stably expressing human P2X7 receptor; BzATP stimulation, Yo-Pro uptake; read-out: IC50 (antagonistic activity for the human P2X7 receptor), class symbol

`COc1cn(Cc2ccc(F)c(F)c2)c(Nc2cc(C)c(F)cc2C)nc1=O` [Compound I-0503] and `COc1cn(Cc2ccc(F)c(Cl)c2)c(Nc2cc(C)c(F)cc2C)nc1=O` [Compound I-0507] cannot be ordered by IC50: less than 10 nM for the first, less than 10 nM for the second.

First: COc1cn(Cc2cc(F)cc(F)c2)c(Nc2cccc(OC(F)F)c2C)nc1=O [Compound I-0504]
Second: COc1cn(Cc2cc(F)cc(F)c2)c(Nc2cccc(OC(C)C)c2C)nc1=O [Compound I-0514]
The IC50 of the first is lower: less than 10 nM for the first, 10 to 100 nM for the second. The first is the more potent here.

`COc1cn(Cc2cc(F)cc(F)c2)c(Nc2cccc(C)c2Cl)nc1=O` [Compound I-0505] and `COc1cn(Cc2cc(F)cc(F)c2)c(Nc2ccc(Cl)cc2C)nc1=O` [Compound I-0563] fall in the same range of IC50: 10 to 100 nM for the first, 10 to 100 nM for the second.

First: COc1cn(Cc2cccc(Cl)c2)c(Nc2cc(C)c(F)cc2C)nc1=O [Compound I-0506]
Second: COc1cn(Cc2cc(F)cc(Cl)c2)c(Nc2cc(C)c(F)cc2C)nc1=O [Compound I-0508]
The IC50 of the first is lower: less than 10 nM for the first, 10 to 100 nM for the second. The first is the more potent here.

`COc1cccc(Nc2nc(=O)c(OC)cn2Cc2cc(F)cc(Cl)c2)c1C` [Compound I-0509] and `COc1cc(Nc2nc(=O)c(OC)cn2Cc2cc(F)cc(Cl)c2)c(C)cc1Cl` [Compound I-0537] cannot be ordered by IC50: less than 10 nM for the first, less than 10 nM for the second.

First: COc1cc(Nc2nc(=O)c(OC)cn2Cc2cc(F)cc(F)c2)c(C)cc1Cl [Compound I-0510]
Second: COc1cn(Cc2cc(F)cc(F)c2)c(Nc2cc(Cl)c(Cl)cc2C)nc1=O [Compound I-0541]
The IC50 of the first is lower: less than 10 nM for the first, 10 to 100 nM for the second. The first is the more potent here.

First: COc1cn(Cc2ccc(F)c(Cl)c2)c(Nc2cccc(OC(F)F)c2C)nc1=O [Compound I-0511]
Second: COc1cn(Cc2ccc(F)c(Cl)c2)c(Nc2cccc(OC(C)C)c2C)nc1=O [Compound I-0515]
The IC50 of the first is lower: less than 10 nM for the first, 10 to 100 nM for the second. The first is the more potent here.

Compared with `COc1cn(Cc2ccccc2)c(Nc2cc(SC(F)(F)F)ccc2C)nc1=O` [Compound I-0512], `COc1cn(Cc2ccc(F)c(Cl)c2)c(Nc2cc(SC(F)(F)F)ccc2C)nc1=O` [Compound I-0546] is lower in IC50: 100 to 500 nM for the first, 10 to 100 nM for the second.

First: COc1cn(Cc2ccccc2)c(Nc2cc(S(C)(=O)=O)ccc2C)nc1=O [Compound I-0513]
Second: COc1cn(Cc2ccc(F)c(Cl)c2)c(Nc2cc(S(C)(=O)=O)ccc2C)nc1=O [Compound I-0547]
The IC50 of the first is higher: 100 to 500 nM for the first, 10 to 100 nM for the second.

`COc1cn(Cc2ccc(F)c(F)c2)c(Nc2ccc(OC(F)F)cc2C)nc1=O` [Compound I-0516] and `COc1cn(Cc2ccc(F)c(F)c2)c(Nc2ccc(OC(C)C)cc2C)nc1=O` [Compound I-0530] fall in the same range of IC50: 10 to 100 nM for the first, 10 to 100 nM for the second.

`COc1c(C)ccc(Nc2nc(=O)c(OC)cn2Cc2ccc(F)c(F)c2)c1C` [Compound I-0517] and `COc1c(C)ccc(Nc2nc(=O)c(OC)cn2Cc2cc(F)cc(F)c2)c1C` [Compound I-0540] cannot be ordered by IC50: less than 10 nM for the first, less than 10 nM for the second.

First: COc1cn(Cc2ccc(F)c(F)c2)c(Nc2cc(Cl)c(Cl)cc2C)nc1=O [Compound I-0518]
Second: COc1cc(Nc2nc(=O)c(OC)cn2Cc2ccc(F)c(F)c2)c(C)cc1Cl [Compound I-0535]
The IC50 of the first is higher: 10 to 100 nM for the first, less than 10 nM for the second.

`COc1cn(Cc2ccc(F)c(F)c2)c(Nc2ccc(N3CCOCC3)cc2C)nc1=O` [Compound I-0519] and `COc1cn(Cc2ccc(F)c(Cl)c2)c(Nc2ccc(N3CCOCC3)cc2C)nc1=O` [Compound I-0548] fall in the same range of IC50: 10 to 100 nM for the first, 10 to 100 nM for the second.

First: COc1cn(Cc2cc(C)cc(C)c2)c(Nc2cccc(Cl)c2C)nc1=O [Compound I-0521]
Second: COc1cc(Nc2nc(=O)c(OC)cn2Cc2cccc(Cl)c2)c(C)cc1Cl [Compound I-0534]
The IC50 of the first is higher: 500 to 1000 nM for the first, less than 10 nM for the second. The second is the more potent here.

Compared with `COc1cn(Cc2ccc(F)c(F)c2)c(Nc2cc(-c3nnco3)ccc2C)nc1=O` [Compound I-0523], `COc1cn(Cc2ccc(F)c(Cl)c2)c(Nc2cc(-c3ncco3)ccc2C)nc1=O` [Compound I-0549] is lower in IC50: 10 to 100 nM for the first, less than 10 nM for the second.

Compared with `COc1cn(Cc2ccc(F)c(Cl)c2)c(Nc2cc(CN3CCCC3)ccc2C)nc1=O` [Compound I-0524], `CCc1cc(Cl)ccc1Nc1nc(=O)c(OC)cn1Cc1ccc(F)c(Cl)c1` [Compound I-0545] is lower in IC50: 100 to 500 nM for the first, less than 10 nM for the second.

First: COc1cn(Cc2ccccc2)c(Nc2cc(-n3c(C)ccc3C)ccc2C)nc1=O [Compound I-0525]
Second: COc1cn(Cc2ccc(F)c(Cl)c2)c(Nc2cc(-n3c(C)ccc3C)ccc2C)nc1=O [Compound I-0526]
The IC50 of the first is higher: 100 to 500 nM for the first, 10 to 100 nM for the second. The second is the more potent here.

Compared with `COc1cn(Cc2ccccc2)c(Nc2cccc3[nH]c(-c4ccccc4)cc23)nc1=O` [Compound I-0527], `COc1cn(Cc2ccccc2)c(Nc2cc(-c3ncco3)ccc2C)nc1=O` [Compound I-0558] is lower in IC50: 500 to 1000 nM for the first, 10 to 100 nM for the second.

`COc1cn(Cc2cc(F)cc(Cl)c2)c(Nc2cc(C)c(OC(F)F)cc2C)nc1=O` [Compound I-0529] and `COc1cn(Cc2cc(F)cc(Cl)c2)c(Nc2cc(OC(C)C)ccc2C)nc1=O` [Compound I-0557] fall in the same range of IC50: 10 to 100 nM for the first, 10 to 100 nM for the second.

`COc1cn(Cc2cc(F)cc(F)c2)c(Nc2ccc(OC(C)C)cc2C)nc1=O` [Compound I-0531] and `COc1cn(Cc2cc(F)cc(F)c2)c(Nc2cc(OC(C)C)ccc2C)nc1=O` [Compound I-0556] fall in the same range of IC50: 10 to 100 nM for the first, 10 to 100 nM for the second.

`COc1cn(Cc2ccc(F)c(Cl)c2)c(Nc2ccc(OC(C)C)cc2C)nc1=O` [Compound I-0532] and `COc1cn(Cc2ccc(F)c(F)c2)c(Nc2cc(OC(C)C)ccc2C)nc1=O` [Compound I-0555] fall in the same range of IC50: 10 to 100 nM for the first, 10 to 100 nM for the second.

`COc1cc(Nc2nc(=O)c(F)cn2Cc2ccc(F)c(Cl)c2)c(C)cc1Cl` [Compound I-0533] and `COc1cc(Nc2nc(=O)c(OC)cn2Cc2ccc(F)c(Cl)c2)c(C)cc1Cl` [Compound I-0536] cannot be ordered by IC50: less than 10 nM for the first, less than 10 nM for the second.

`COc1ccc(Nc2nc(=O)c(OC)cn2Cc2cc(F)cc(F)c2)c(C)c1` [Compound I-0538] and `COc1cn(Cc2cc(F)cc(F)c2)c(Nc2ccc(OC(F)F)cc2C)nc1=O` [Compound I-0539] fall in the same range of IC50: 10 to 100 nM for the first, 10 to 100 nM for the second.

`CCc1cc(Cl)ccc1Nc1nc(=O)c(OC)cn1Cc1cc(F)cc(F)c1` [Compound I-0542] and `COc1cn(Cc2cc(F)cc(F)c2)c(Nc2cc(-c3ncco3)ccc2C)nc1=O` [Compound I-0554] fall in the same range of IC50: 10 to 100 nM for the first, 10 to 100 nM for the second.

`COc1cn(Cc2cc(F)cc(F)c2)c(Nc2ccc(N3CCOCC3)cc2C)nc1=O` [Compound I-0543] and `COc1cn(Cc2cc(F)cc(F)c2)c(Nc2cc(N3CCCS3(=O)=O)ccc2C)nc1=O` [Compound I-0552] fall in the same range of IC50: 10 to 100 nM for the first, 10 to 100 nM for the second.

First: COc1ccc(Cl)c(Nc2nc(=O)c(OC)cn2Cc2ccc(F)c(Cl)c2)c1 [Compound I-0544]
Second: COc1cc(C)cc(Nc2nc(=O)c(OC)cn2Cc2ccc(F)cc2)c1C [Compound I-0560]
The IC50 of the first is higher: 10 to 100 nM for the first, less than 10 nM for the second. The second is the more potent here.

`COc1cn(Cc2cc(F)cc(F)c2)c(Nc2cc(S(C)(=O)=O)c(C)cc2C)nc1=O` [Compound I-0551] and `COc1cn(Cc2cc(F)cc(F)c2)c(Nc2cc3sc(C)nc3cc2C)nc1=O` [Compound I-0553] fall in the same range of IC50: 10 to 100 nM for the first, 10 to 100 nM for the second.

`COc1cn(Cc2cccc(F)c2)c(Nc2cc3sc(C)nc3cc2C)nc1=O` [Compound I-0559] and `COc1cn(Cc2cccc(Cl)c2)c(Nc2cc3sc(C)nc3cc2C)nc1=O` [Compound I-0562] fall in the same range of IC50: 10 to 100 nM for the first, 10 to 100 nM for the second.
